# Laboratory results reported in patent US8273900B2, “Organic compounds” (Novartis AG, priority 2008, dated 2012).
# Molecular target: T1, human recombinant CRF-1 receptor (Homo sapiens, UniProt P34998)
# T1 construct: expressed in transfected cells; host or cells: CHO cells (G418-selected)
# T1 sequence (P34998 24-415): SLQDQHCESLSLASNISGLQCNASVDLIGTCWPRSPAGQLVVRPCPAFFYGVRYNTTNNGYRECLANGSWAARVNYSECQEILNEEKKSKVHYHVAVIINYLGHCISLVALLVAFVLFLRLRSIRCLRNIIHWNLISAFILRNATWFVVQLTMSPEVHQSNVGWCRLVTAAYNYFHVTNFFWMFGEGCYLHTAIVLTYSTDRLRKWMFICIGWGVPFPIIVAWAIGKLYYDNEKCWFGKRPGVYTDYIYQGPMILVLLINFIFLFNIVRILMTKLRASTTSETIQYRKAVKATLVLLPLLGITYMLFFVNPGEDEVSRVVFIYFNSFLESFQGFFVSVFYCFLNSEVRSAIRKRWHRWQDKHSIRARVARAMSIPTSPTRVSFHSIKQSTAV
# Test: CRF-1 receptor antagonism, HTRF cAMP assay in CHO cells in the presence of 1 nM CRF
# Type: cell-based
# Conditions: CHO cells expressing human recombinant CRF-1; inhibition of the effect of 1 nM CRF on cAMP
# Protocol: The CRF-1 or CRF-2α receptor antagonistic activity of the agents of the invention has been determined in vitro in the following assay:
# Chinese hamster ovary (CHO) cells expressing either the human recombinant CRF-1 or CRF-2a receptors (Chen et al., Proc Natl Acad Sci USA 90, 8967-8971, 1993; Liaw et al., Endocrinology 137, 72-77, 1996) are propagated in Dulbecco's modified Eagle medium supplemented with 10% foetal calf serum, non-essential amino acids, 100 U/ml penicillin, 100 mg/l streptomycin and 1 g/l geneticin (G418). For cyclic AMP determinations the Homogeneous Time-Resolved Fluoresce (HTRF) cAMP dynamic 2 kit (Cisbio International, France) was used as per manufacturers' instructions. CHO cells, previously cryopreserved, were thawed, centrifuged for 7 mins at 1200 rpm and resuspended in serum free media, then pipetted out onto clear bottomed black tissue culture treated 384-well microtitre plates (Corning Inc, US) at 2,000 cells per well. Compounds of the invention, prepared in DMSO, and subsequently diluted 50 fold in assay buffer (1× Hanks balanced salt solution, 0.2% (w/v) bovine serum albumin, 1.7 mM isobutylmethylxanthine and 10 mM Hepes, pH 7.4) are then added onto the cell containing plate where a further 2 fold dilution is performed and incubated for 15 min. Following incubation, buffer containing a 5 times final concentration of agonist is added to the plate and incubated for 30 min. Finally, d2 dye labelled cAMP and cryptate labeled anti-cAMP antibody, both made in lysis buffer, are added to the plate followed by a settling period of 1 hour. During the settling period cAMP produced by the cells competes with the d2 labelled cAMP for the anti-cAMP cryptate. The plate is read on the Pherastar (BMG, Germany). Increasing levels of endogenous cAMP produced by cells can be followed by a decrease of fluorescent signal and vice versa. Values represented by a change in arbitrary fluorescence units are converted into cAMP concentrations by use of a standard curve the reagents for which are supplied with the kit. Antagonist dose response curves (1 nM-30 μM) are constructed in the presence of 1 nM CRF. IC50 values of antagonists are calculated by fitting the percent inhibition of the effect of CRF by increasing concentrations of the antagonists. The fit is performed using the nonlinear logistic function of the Activitybase software package v 5.4.5.27 (IDBS, UK).
row,SMILES,IC50
1,"COc1ncc(C)cc1NC[C@H]1CC[C@H](NC(=O)c2cc(C(F)(F)F)ccc2Cl)CC1 [Example 19.56, Trans-2-chloro-N-(4-((2-methoxy-5-methylpyridin-3-ylamino)methyl)cyclohexyl)-5-(trifluoromethyl) benzamide]",84 nM
2,"Cc1cc(C)n(C[C@H]2CC[C@H](NC(=O)c3cc(Cl)cnc3C)CC2)n1 [Example 22.4, 5-Chloro-N-[4-(3,5-dimethyl-pyrazol-1-ylmethyl)-cyclohexyl]-2-methyl-nicotinamide]",350 nM
3,"Cc1ncc(Cl)cc1C(=O)N[C@H]1CC[C@H](Cn2nc(C(F)(F)F)cc2C)CC1 [Example 22.7, Trans-5-Chloro-2-methyl-N-[4-(5-methyl-3-trifluoromethyl-pyrazol-1-ylmethyl)-cyclohexyl]-nicotinamide]",187 nM
4,"Cc1ccc2[nH]nc(NC[C@H]3CC[C@H](NC(=O)c4cc(C(F)(F)F)ccc4Cl)CC3)c2c1 [Example 19.59, Trans-2-chloro-N-(4-((5-methyl-1H-indazol-3-ylamino)methyl)cyclohexyl)-5-(trifluoromethyl) benzamide]",87 nM
5,"CCCc1cc(NC[C@H]2CC[C@H](NC(=O)c3cc(Cl)cnc3C)CC2)n[nH]1 [Example 19.110, Trans-2-Chloro-2 methyl-N-{4-[(5-propyl-1H-pyrazol-3-ylamino)-methyl]-cyclohexyl}-nicotinamide]",97 nM
6,"Cc1nc(NC[C@H]2CC[C@H](NC(=O)c3cc(Cl)cnc3Cl)CC2)sc1C [Example 1.18, Trans-2,5-Dichloro-N-{4-[(4,5-dimethyl-thiazol-2-ylamino)-methyl]-cyclohexyl}-nicotinamide]",31 nM
7,"Cc1cc(C)n(C[C@H]2CC[C@H](NC(=O)c3cc(C(F)(F)F)ccc3Cl)CC2)n1 [Example 7, Trans-2-chloro-N-[4-(3,5-dimethyl-pyrazol-1-ylmethyl)-cyclohexyl]-5-trifluoromethyl-benzamide]",22 nM
8,"O=C(N[C@H]1CC[C@H](CNc2nnnn2-c2ccccc2)CC1)c1cc(C(F)(F)F)ccc1Cl [Example 19.100, Trans-2-Chloro-N-{4-[(1-phenyl-1H-tetrazol-5-ylamino)-methyl]-cyclohexyl}-5-trifluoromethyl-benzamide]",29 nM
9,"Cc1ncc(Cl)cc1NC[C@H]1CC[C@H](NC(=O)c2cc(C(F)(F)F)ccc2Cl)CC1 [Example 19.73, Trans-2-chloro-N-(4-((5-chloro-2-methylpyridin-3-ylamino)methyl)cyclohexyl)-5-(trifluoromethyl) benzamide]",19 nM
10,"COc1ccc(Cl)c(NC[C@H]2CC[C@H](NC(=O)c3cc(C(F)(F)F)ccc3Cl)CC2)n1 [Example 19.98, Trans-2-Chloro-N-{4-[(3-chloro-6-methoxy-pyridin-2-ylamino)-methyl]-cyclohexyl}-5-trifluoromethyl-benzamide]",52 nM
11,"O=C(N[C@H]1CC[C@H](CNc2cccc3ncccc23)CC1)c1cccc(C(F)(F)F)c1 [Example 13, Trans-N-[4-(Quinolin-5-ylaminomethyl)-cyclohexyl]-3-trifluoromethyl-benzamide]",70 nM
12,"O=C(N[C@H]1CC[C@H](CNc2cccc(F)c2)CC1)c1cc(C(F)(F)F)ccc1Cl [Example 9, Trans-2-Chloro-N-{4-[(3-fluoro-phenylamino)-methyl]-cyclohexyl}-5-trifluoromethyl-benzamide]",50 nM
13,"CCCc1cc(NC[C@H]2CC[C@H](NC(=O)c3cc(C(F)(F)F)ccc3Cl)CC2)n[nH]1 [Example 4.15, Trans-2-Chloro-N-{4-[(5-propyl-1H-pyrazol-3-ylamino)-methyl]-cyclohexyl}-5-trifluoromethyl-benzamide]",61 nM
14,"O=C(N[C@H]1CC[C@H](CNc2n[nH]c3ncccc23)CC1)c1cc(C(F)(F)F)ccc1Cl [Example 19.57, Trans-N-(4-((1H-pyrazolo[3,4-b]pyridin-3-ylamino)methyl)cyclohexyl)-2-chloro-5-(trifluoromethyl) benzamide]",88 nM
15,"O=C(N[C@H]1CC[C@H](CNc2ccccc2)CC1)c1cc(C(F)(F)F)ccc1Cl [Example 4.33, Trans-2-Chloro-N-(4-phenylaminomethyl-cyclohexyl)-5-trifluoromethyl-benzamide]",50 nM
16,"CCc1[nH]nc(NC[C@H]2CC[C@H](NC(=O)c3cc(C(F)(F)F)ccc3Cl)CC2)c1C [Example 19.117, Trans-2-Chloro-N-{4-[(5-ethyl-4-methyl-1H-pyrazol-3-ylamino)-methyl]-cyclohexyl}-5-trifluoromethyl-benzamide]",43 nM
17,"O=C(N[C@H]1CC[C@H](CNc2n[nH]c3c2CCCC3)CC1)c1cc(C(F)(F)F)ccc1Cl [Example 19.49, Trans-2-chloro-N-(4-((4,5,6,7-tetrahydro-1H-indazol-3-ylamino)methyl)cyclohexyl)-5-(trifluoromethyl) benzamide]",31 nM
18,"Cc1ncccc1NC[C@H]1CC[C@H](NC(=O)c2cc(C(F)(F)F)ccc2Cl)CC1 [Example 1.13, Trans-2-Chloro-N-{4-[(2-methyl-pyridin-3-ylamino)-methyl]-cyclohexyl}-5-trifluoromethyl-benzamide]",19 nM
19,"Cc1ncc(Cl)cc1C(=O)N[C@H]1CC[C@H](CNc2ccc(F)cn2)CC1 [Example 19.108, Trans-5-Chloro-N-{4-[(5-fluoro-pyridin-2-ylamino)-methyl]-cyclohexyl}-2-methyl-nicotinamide]",72 nM
20,"Cc1ncc(Cl)cc1C(=O)N[C@H]1CC[C@H](CNc2cc(C(F)(F)F)n[nH]2)CC1 [Example 19.107, Trans-5-Chloro-2-methyl-N-{4-[(5-trifluoromethyl-2H-pyrazol-3-ylamino)-methyl]-cyclohexyl}-nicotinamide]",118 nM
21,"Cc1n[nH]c(NC[C@H]2CC[C@H](NC(=O)c3cc(C(F)(F)F)ccc3Cl)CC2)c1-c1ccccc1 [Example 19.71, Trans-2-chloro-N-(4-((3-methyl-4-phenyl-1H-pyrazol-5-ylamino)methyl)cyclohexyl)-5-(trifluoromethyl) benzamide]",140 nM
22,"Cc1ccncc1NC[C@H]1CC[C@@H](NC(=O)c2cc(C(F)(F)F)ccc2Cl)CC1 [Example 14.1, Cis-2-chloro-N-((1s,4s)-4-((4-methylpyridin-3-ylamino)methyl)cyclohexyl)-5-(trifluoromethyl)benzamide]",2200 nM
23,"O=C(O)c1ccc(NC[C@H]2CC[C@H](NC(=O)c3cc(C(F)(F)F)ccc3Cl)CC2)nc1 [Example 1.33, Trans-6-{[4-(2-Chloro-5-trifluoromethyl-benzoylamino)-cyclohexylmethyl]-amino}-nicotinic acid]",6420 nM
24,"Cc1nc(C)n(C[C@H]2CC[C@H](NC(=O)c3cc(C(F)(F)F)ccc3Cl)CC2)n1 [Example 21.4, 2-Chloro-N-[4-(3,5-dimethyl-[1,2,4]triazol-1-ylmethyl)-cyclohexyl]-5-trifluoromethyl-benzamide]",299 nM
25,"O=C(N[C@H]1CC[C@H](CNc2cc(-c3ccc(F)cc3)n[nH]2)CC1)c1cc(C(F)(F)F)ccc1Cl [Example 4.11, Trans-2-Chloro-N-(4-{[5-(4-fluoro-phenyl)-2H-pyrazol-3-ylamino]-methyl}-cyclohexyl)-5-trifluoromethyl-benzamide]",61 nM
26,"O=C(N[C@H]1CC[C@H](CNc2cncc(F)c2)CC1)c1cc(C(F)(F)F)ccc1Cl [Example 19.1, Trans-2-chloro-N-(4-((5-fluoropyridin-3-ylamino)methyl)cyclohexyl)-5-(trifluoromethyl) benzamide]",26 nM
27,"COc1ccc2c(NC[C@H]3CC[C@H](NC(=O)c4cc(C(F)(F)F)ccc4Cl)CC3)n[nH]c2c1 [Example 19.68, Trans-2-chloro-N-(4-((6-methoxy-1H-indazol-3-ylamino)methyl)cyclohexyl)-5-(trifluoromethyl) benzamide]",32 nM
28,"Cc1cc(C)nc(NC[C@H]2CC[C@H](NC(=O)c3cc(C(F)(F)F)ccc3Cl)CC2)c1 [Example 2.6, Trans-2-Chloro-N-{4-[(4,6-dimethyl-pyridin-2-ylamino)-methyl]-cyclohexyl}-5-trifluoromethyl-benzamide]",215 nM
